Key:
[1] = test system: mnb-overexpressing Drosophila; test: Embryonic neurological phenotype with pan-neuronal mnb overexpression (elav::synGFP); type: in vivo
Text: (§1) The expression of human Tau in Drosophila retinal tissue (GMR>Tau) produced a small rough eye phenotype (GMR>Tau in Fig. 6A and B), as described previously ([Jackson et al., 2002]). […] Pan-neuronal mnb overexpression (elav::synGFP>mnb) caused severe neurogenic defects in both the central and peripheral nervous system during embryogenesis [elav::synGFP>mnb (DMSO) in Fig. 6C]. […] Moreover, the viability of adult flies with the neuronal overexpression of mnb was examined. Pan-neuronal overexpression of mnb caused high rates of mortality in adult flies (∼70%, Fig. 6D).
(§2) Fig. 6. CX-4945 rescues neurological and phenotypic defects in an mnb-overexpressing Drosophila model. (A) The eyes of adult flies overexpressing mnb and/or human Tau under the control of the eye-specific GMR-Gal4 driver, and of control flies bearing only GMR-Gal4. Overexpression of mnb aggravated the eye abnormality induced by Tau overexpression. […] White dashed lines outline the eye contour. (B) The retinal surface areas were measured on multiple samples (n>10) from each genotype, and average eye sizes were presented as normalized percentages of the DMSO-treated GMR-Gal4 control. (C) The brain cortex, primary neuronal cell clusters and axon bundle, as visualized with GFP (green) using UAS-Synaptobrevin-GFP driven by elav-Gal4 at the late embryonic stage 18. […]

[2] = test system: mnb-overexpressing Drosophila; test: Wing vein (LV5) defect rescue in mnb-overexpressing flies (MS1096-gal4); type: in vivo, Drosophila melanogaster; settings: larvae fed for 2 weeks
[3] = test system: calcineurin-NFAT signaling; test: Flag-NFATc1 localization by immunofluorescence in 293T cells; type: cell-based; settings: 10 μM, 293T cells with overexpressed DYRK1A, ionomycin 5 μM
Text: Flag-NFATc1 remained predominantly in the cytosol when expressed in 293T cells (Mock, Fig. 5A). Upon the addition of the calcium ionophore ionomycin (IM), Flag-NFATc1 was translocated into the nucleus (Fig. 5A, IM) as a result of NFATc1 dephosphorylation by activated calcineurin. Overexpression of DYRK1A relocalized Flag-NFATc1 into the cytoplasm, even in the presence of ionomycin owing to the opposing action of DYRK1A on NFATc1 phosphorylation, which is consistent with its negative regulatory role in the calcineurin-NFAT pathway (Fig. 5A, DYRK1A+IM).
Fig. 5. […] Firefly luciferase activities were measured using One-Glo reagents. Luciferase activity in the sample with reporter plasmid alone was set to 1, and the relative luciferase activities were calculated. Means±s.d. were determined from two independent experiments.
293T cells were seeded into 8-well chambered coverslips (Ibidi) and transfected with a plasmid expressing Flag-NFATc1. […] Cells were fixed with 4% paraformaldehyde in PBS for 10 min at room temperature, followed by permeabilization with 0.1% Triton X-100, and then subjected to immunofluorescence staining with anti-Flag (1:500) antibody for 2 h. Cells were then washed with cold PBS three times for 3 min each, incubated with Alexa-Fluor-488-conjugated anti-rabbit IgG (1:800) (Invitrogen) at room temperature for 1 h and then examined under a fluorescence microscope.

DYRK4 = biological target: T1, DYRK4 (Homo sapiens, UniProt Q9NR20); test: In vitro kinase assay, recombinant human DYRK4 (Life Technologies); type: biochemical
T1 construct: purchased Life Technologies (Kinase Profiler service)
T1 sequence (Q9NR20 1-520): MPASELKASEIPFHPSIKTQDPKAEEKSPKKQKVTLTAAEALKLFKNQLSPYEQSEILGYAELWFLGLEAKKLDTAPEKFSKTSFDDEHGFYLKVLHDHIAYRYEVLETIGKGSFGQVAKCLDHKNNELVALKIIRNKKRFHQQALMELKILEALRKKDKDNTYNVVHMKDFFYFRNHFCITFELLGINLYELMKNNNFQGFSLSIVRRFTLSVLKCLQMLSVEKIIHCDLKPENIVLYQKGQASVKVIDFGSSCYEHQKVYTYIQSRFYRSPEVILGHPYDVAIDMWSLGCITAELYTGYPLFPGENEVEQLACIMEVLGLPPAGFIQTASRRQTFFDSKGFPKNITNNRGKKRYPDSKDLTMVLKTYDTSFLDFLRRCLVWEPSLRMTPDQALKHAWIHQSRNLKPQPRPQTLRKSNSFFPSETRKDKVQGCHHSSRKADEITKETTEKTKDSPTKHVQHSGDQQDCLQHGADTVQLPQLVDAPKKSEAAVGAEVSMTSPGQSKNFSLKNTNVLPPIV

DYRK1A = DYRK1A (Homo sapiens, UniProt Q13627); test: DYRK1A kinase activity at various ATP and CX-4945 concentrations (Lineweaver-Burk); type: biochemical; set-up: purchased Life Technologies (Kinase Profiler service); settings: ATP 50, 75, 100, 150 and 200 μM; Lineweaver-Burk plots
Experimental: Fig. 2. […] Data are mean±s.d. […] Hydrogen bonds are denoted as dotted black lines, and oxygen, nitrogen and chlorine atoms are indicated as red, blue and green sticks, respectively.
Kinase assays were conducted using the Kinase Profiler services offered by Life Technologies, which utilizes a fluorescence-based immunoassay. Detailed protocols can be found at http://www.lifetechnologies.com/kinaseprofiling. […] All experiments were performed twice.

[4] = test system: mnb-overexpressing Drosophila; test: Adult lethality with pan-neuronal mnb overexpression; type: in vivo, Drosophila melanogaster; settings: parent flies fed 100 nM, n=100 per group
Text: as §1, §2

O=C(O)c1ccc2c(c1)nc(Nc1cccc(Cl)c1)c1ccncc12 [CX-4945]
effect on control flies lacking mnb overexpression ([1]; 100 nM, elav::synGFP>control): little noticeable effect | neurogenic defects of mnb-overexpressing embryos ([1]; parent flies fed 100 nM, elav::synGFP>mnb): restored these neurogenic defects | concentration giving apparent rescue of wing (LV5) defect [2]: 10 to 100 nM | nuclear translocation of Flag-NFATc1 [3]: effectively induced the nuclear translocation | IC50 (DYRK4): 1.5 µM | mode of DYRK1A inhibition (DYRK1A): ATP-competitive manner | reduction of mortality of the progeny [4]: more than 70%

Reference: PMC5007978, “A chemical with proven clinical safety rescues Down-syndrome-related phenotypes in through DYRK1A inhibition” (Disease Models & Mechanisms, 2016)
